Like-named read-outs stand apart in the source and are kept apart here.
Experiments:
B16F10 mouse melanoma = test: Biodistribution of 177Lu-labeled αMSH analogues in mice bearing B16F10 mouse melanoma; assay type: in vivo, C57BL/6J mice; details: C57BL/6J mice, B16F10 melanoma
Method: (§1) The B16-F10 mouse melanoma cells were cultured and inoculated in mice as described in Example 1.
(§2) For biodistribution studies, approximately 1-2 MBq of ^177Lu-labeled αMSH analogues via tail vein under anesthesia. At 1, 4, 24, and 120 h p.i., the mice were euthanized by CO2 inhalation. Organs/tissues were harvested and the radioactivity was measured as described in Example 1.

[1] = as above; assay type: in vivo, C57BL/6J mice; details: mouse, iv, total radioactivity, C57BL/6J mice, B16F10 melanoma
Method: as §1, §2

In the case of `CCCC[C@H](NC(=O)CN1CCC(NC(=O)CN2CCN(CC(=O)O)CCN(CC(=O)O)CCN(CC(=O)O)CC2)CC1)C(=O)N[C@H]1CC(=O)NCCCC[C@@H](C(N)=O)N(C)C(=O)[C@H](Cc2c[nH]c3ccccc23)N(C)C(=O)[C@H](CCCNC(=N)N)N(C)C(=O)[C@@H](Cc2ccccc2)NC(=O)[C@H](Cc2c[nH]cn2)N(C)C1=O` [^177Lu-labeled CCZ01099, metal not drawn], the “Biodistribution, B16F10 tumour” value (B16F10 mouse melanoma; 1 h p.i.) is reported as 4.49 ± 1.89 % ID/g, the “Biodistribution, B16F10 tumour” value (B16F10 mouse melanoma; 4 h p.i.) is reported as 4.42 ± 0.64 % ID/g and the “Biodistribution, B16F10 tumour” value (B16F10 mouse melanoma; 24 h p.i.) is reported as 2.04 ± 0.46 % ID/g. The “Biodistribution, Brain” value (B16F10 mouse melanoma; 24 h p.i.) was 0.00 ± 0.00 % ID/g, the “Biodistribution, B16F10 tumour” value (B16F10 mouse melanoma; 120 h p.i.) was 0.49 ± 0.30 % ID/g and the “Biodistribution, Blood” value (B16F10 mouse melanoma; 120 h p.i.) was 0.00 ± 0.00 % ID/g. The “Biodistribution, Brain” value (B16F10 mouse melanoma; 120 h p.i.) was 0.00 ± 0.00 % ID/g, the “Biodistribution, Seminal glands” value (B16F10 mouse melanoma; 120 h p.i.) was 0.00 ± 0.00 % ID/g and the tissue uptake at 1 h ([1]; male, seminal glands, 1 h p.i., read-out: Biodistribution, Seminal glands) was 0.06 ± 0.02 %ID/g. For the same compound, the tissue uptake at 4 h ([1]; male, seminal glands, 4 h p.i., read-out: Biodistribution, Seminal glands) was 0.02 %ID/g, the tissue uptake at 24 h ([1]; male, seminal glands, 24 h p.i., read-out: Biodistribution, Seminal glands) was 0.01 %ID/g and the tissue uptake at 1 h ([1]; male, testes, 1 h p.i., read-out: Biodistribution, Testes) was 0.13 ± 0.02 %ID/g. It also gave a tissue uptake at 4 h ([1]; male, testes, 4 h p.i., read-out: Biodistribution, Testes) of 0.03 %ID/g, a tissue uptake at 24 h ([1]; male, testes, 24 h p.i., read-out: Biodistribution, Testes) of 0.03 %ID/g and a tissue uptake at 120 h ([1]; male, testes, 120 h p.i., read-out: Biodistribution, Testes) of 0.02 ± 0.01 %ID/g. For the same compound, the tissue uptake at 1 h ([1]; adrenal glands, 1 h p.i., read-out: Biodistribution, Adrenal glands) was 0.39 ± 0.13 %ID/g, the tissue uptake at 4 h ([1]; adrenal glands, 4 h p.i., read-out: Biodistribution, Adrenal glands) was 0.19 ± 0.06 %ID/g and the tissue uptake at 24 h ([1]; adrenal glands, 24 h p.i., read-out: Biodistribution, Adrenal glands) was 0.1 ± 0.04 %ID/g. For the same compound, the tissue uptake at 120 h ([1]; adrenal glands, 120 h p.i., read-out: Biodistribution, Adrenal glands) was 0.03 ± 0.03 %ID/g, the tissue uptake at 1 h ([1]; blood, 1 h p.i., read-out: Biodistribution, Blood) was 0.48 ± 0.22 %ID/g and the tissue uptake at 4 h ([1]; blood, 4 h p.i., read-out: Biodistribution, Blood) was 0.05 ± 0.01 %ID/g. For the same compound, the tissue uptake at 24 h ([1]; blood, 24 h p.i., read-out: Biodistribution, Blood) was 0.01 %ID/g, the tissue uptake at 1 h ([1]; bone, 1 h p.i., read-out: Biodistribution, Bone) was 0.13 ± 0.03 %ID/g and the tissue uptake at 4 h ([1]; bone, 4 h p.i., read-out: Biodistribution, Bone) was 0.06 ± 0.02 %ID/g. The tissue uptake at 24 h ([1]; bone, 24 h p.i., read-out: Biodistribution, Bone) was 0.04 ± 0.01 %ID/g, the tissue uptake at 120 h ([1]; bone, 120 h p.i., read-out: Biodistribution, Bone) was 0.02 ± 0.01 %ID/g and the tissue uptake at 1 h ([1]; brain, 1 h p.i., read-out: Biodistribution, Brain) was 0.02 %ID/g. For the same compound, the tissue uptake at 4 h ([1]; brain, 4 h p.i., read-out: Biodistribution, Brain) was 0.01 %ID/g, the tissue uptake at 1 h ([1]; fat, 1 h p.i., read-out: Biodistribution, Fat) was 0.06 ± 0.02 %ID/g and the tissue uptake at 4 h ([1]; fat, 4 h p.i., read-out: Biodistribution, Fat) was 0.01 %ID/g. The tissue uptake at 24 h ([1]; fat, 24 h p.i., read-out: Biodistribution, Fat) was 0.01 %ID/g, the tissue uptake at 120 h ([1]; fat, 120 h p.i., read-out: Biodistribution, Fat) was 0.01 %ID/g and the tissue uptake at 1 h ([1]; heart, 1 h p.i., read-out: Biodistribution, Heart) was 0.17 ± 0.06 %ID/g. For the same compound, the tissue uptake at 4 h ([1]; heart, 4 h p.i., read-out: Biodistribution, Heart) was 0.04 ± 0.01 %ID/g, the tissue uptake at 24 h ([1]; heart, 24 h p.i., read-out: Biodistribution, Heart) was 0.03 %ID/g and the tissue uptake at 120 h ([1]; heart, 120 h p.i., read-out: Biodistribution, Heart) was 0.02 %ID/g. It also gave a tissue uptake at 1 h ([1]; intestine, 1 h p.i., read-out: Biodistribution, Intestine) of 0.25 ± 0.03 %ID/g, a tissue uptake at 4 h ([1]; intestine, 4 h p.i., read-out: Biodistribution, Intestine) of 0.12 ± 0.06 %ID/g and a tissue uptake at 24 h ([1]; intestine, 24 h p.i., read-out: Biodistribution, Intestine) of 0.23 ± 0.28 %ID/g. It also gave a tissue uptake at 120 h ([1]; intestine, 120 h p.i., read-out: Biodistribution, Intestine) of 0.12 ± 0.16 %ID/g, a tissue uptake at 1 h ([1]; kidneys, 1 h p.i., read-out: Biodistribution, Kidneys) of 4.15 ± 0.99 %ID/g and a tissue uptake at 4 h ([1]; kidneys, 4 h p.i., read-out: Biodistribution, Kidneys) of 4.32 ± 2.06 %ID/g. For the same compound, the tissue uptake at 24 h ([1]; kidneys, 24 h p.i., read-out: Biodistribution, Kidneys) was 1.61 ± 0.29 %ID/g, the tissue uptake at 120 h ([1]; kidneys, 120 h p.i., read-out: Biodistribution, Kidneys) was 0.5 ± 0.02 %ID/g and the tissue uptake at 1 h ([1]; liver, 1 h p.i., read-out: Biodistribution, Liver) was 0.41 ± 0.11 %ID/g. The tissue uptake at 4 h ([1]; liver, 4 h p.i., read-out: Biodistribution, Liver) was 0.34 ± 0.1 %ID/g, the tissue uptake at 24 h ([1]; liver, 24 h p.i., read-out: Biodistribution, Liver) was 0.32 ± 0.13 %ID/g and the tissue uptake at 120 h ([1]; liver, 120 h p.i., read-out: Biodistribution, Liver) was 0.19 ± 0.02 %ID/g. It also gave a tissue uptake at 1 h ([1]; lungs, 1 h p.i., read-out: Biodistribution, Lungs) of 0.54 ± 0.2 %ID/g, a tissue uptake at 4 h ([1]; lungs, 4 h p.i., read-out: Biodistribution, Lungs) of 0.17 ± 0.06 %ID/g and a tissue uptake at 24 h ([1]; lungs, 24 h p.i., read-out: Biodistribution, Lungs) of 0.07 ± 0.02 %ID/g. For the same compound, the tissue uptake at 120 h ([1]; lungs, 120 h p.i., read-out: Biodistribution, Lungs) was 0.04 ± 0.01 %ID/g, the tissue uptake at 1 h ([1]; muscle, 1 h p.i., read-out: Biodistribution, Muscle) was 0.1 ± 0.04 %ID/g and the tissue uptake at 4 h ([1]; muscle, 4 h p.i., read-out: Biodistribution, Muscle) was 0.02 %ID/g. It also gave a tissue uptake at 24 h ([1]; muscle, 24 h p.i., read-out: Biodistribution, Muscle) of 0.01 %ID/g, a tissue uptake at 120 h ([1]; muscle, 120 h p.i., read-out: Biodistribution, Muscle) of 0.01 %ID/g and a tissue uptake at 1 h ([1]; pancreas, 1 h p.i., read-out: Biodistribution, Pancreas) of 0.13 ± 0.05 %ID/g. The tissue uptake at 4 h ([1]; pancreas, 4 h p.i., read-out: Biodistribution, Pancreas) was 0.03 ± 0.01 %ID/g, the tissue uptake at 24 h ([1]; pancreas, 24 h p.i., read-out: Biodistribution, Pancreas) was 0.03 %ID/g and the tissue uptake at 120 h ([1]; pancreas, 120 h p.i., read-out: Biodistribution, Pancreas) was 0.02 %ID/g. The tissue uptake at 1 h ([1]; spleen, 1 h p.i., read-out: Biodistribution, Spleen) was 0.24 ± 0.08 %ID/g, the tissue uptake at 4 h ([1]; spleen, 4 h p.i., read-out: Biodistribution, Spleen) was 0.13 ± 0.04 %ID/g and the tissue uptake at 24 h ([1]; spleen, 24 h p.i., read-out: Biodistribution, Spleen) was 0.12 ± 0.02 %ID/g. The tissue uptake at 120 h ([1]; spleen, 120 h p.i., read-out: Biodistribution, Spleen) was 0.07 ± 0.01 %ID/g, the tissue uptake at 1 h ([1]; stomach, 1 h p.i., read-out: Biodistribution, Stomach) was 0.13 ± 0.02 %ID/g and the tissue uptake at 4 h ([1]; stomach, 4 h p.i., read-out: Biodistribution, Stomach) was 0.59 ± 1.14 %ID/g. The tissue uptake at 24 h ([1]; stomach, 24 h p.i., read-out: Biodistribution, Stomach) was 0.53 ± 0.48 %ID/g, the tissue uptake at 120 h ([1]; stomach, 120 h p.i., read-out: Biodistribution, Stomach) was 0.12 ± 0.16 %ID/g and the tissue uptake at 1 h ([1]; thyroid, 1 h p.i., read-out: Biodistribution, Thyroid) was 0.22 ± 0.09 %ID/g. It also gave a tissue uptake at 4 h ([1]; thyroid, 4 h p.i., read-out: Biodistribution, Thyroid) of 0.07 ± 0.01 %ID/g, a tissue uptake at 24 h ([1]; thyroid, 24 h p.i., read-out: Biodistribution, Thyroid) of 0.06 ± 0.01 %ID/g and a tissue uptake at 120 h ([1]; thyroid, 120 h p.i., read-out: Biodistribution, Thyroid) of 0.05 ± 0.01 %ID/g. The excreta dose per gram or mL at 1 h ([1]; urine, 1 h p.i.) was 227 ± 115 %ID/g, the excreta dose per gram or mL at 4 h ([1]; urine, 4 h p.i.) was 49.1 ± 39.7 %ID/g and the excreta dose per gram or mL at 24 h ([1]; urine, 24 h p.i.) was 0.46 ± 0.31 %ID/g. For the same compound, the excreta dose per gram or mL at 120 h ([1]; urine, 120 h p.i.) was 0.09 ± 0.06 %ID/g.
